Measurements taken from PMC6943417, “Housefly Pupae-Derived Antioxidant Peptides Exerting Neuroprotective Effects on Hydrogen Peroxide-Induced Oxidative Damage in PC12 Cells” (Molecules, 2019).
Where no end group is shown, it is not given here.

Test system: pepsin and pancreatin
Type: in vitro ADME
Protocol: The ABTS cation radical scavenging activity assay was conducted according to the manufacture instruction. […] The ABTS cation radical scavenging activity was calculated by the following formula: ABTS cation radical scavenging activity (%) = (1 − A1/A0) × 100%(2) where A1 and A0 were the absorbances of sample group and control group, respectively. The sample solution of control group was replaced with deionized water. Ascorbic acid was used as a positive control.
Thermal stability of synthetic peptides was determined according to the method of Yarnpakdee et al. with minor modifications. The synthetic peptides were respectively incubated at 25, 60, 70, 80, 90 °C for 30 min and then measured their scavenging ability of ABTS cation radical. The ability of synthetic peptides against pH treatments was measured according to Zhu et al.. In brief, pH of peptide solution was adjusted to 1, 3, 5, 7, 9, 11, incubated at room temperature for 1 h, and then ABTS cation radical scavenging activity of the treated peptides was measured. A two-stage digestion of protease in vitro (pepsin-digestion for 1 h and then pancreatin-digestion for 2 h at 37 °C) was performed as described by Zhang et al.. The ABTS cation radical scavenging ability was evaluated to assess the peptides stability against GI digestion.

| change in ABTS radical scavenging ability after simulated GI digestion | Sequence |
| --- | --- |
| no significant change | ARFEELCSDLFR [AR12, Ala-Arg-Phe-Glu-Glu-Leu-Cys-Ser-Asp-Leu-Phe-Arg] |
| slight decrease | DFTPVCTTELGR [DR12, Asp-Phe-Thr-Pro-Val-Cys-Thr-Thr-Glu-Leu-Gly-Arg] |
